Structures can show the parent of a compound that is named as a salt.
Legend:
Assay type in all cases: physicochemical
[1] = Acid-base equilibrium of olopatadine (pKa values, iso-electric point)
Excerpt: Olopatadine has both a carboxylic functional group (pKa1=4.18) and a tertiary amino group (pKa2=9.79). It exists in different ionic forms depending upon the pH of the solution. Olopatadine exists predominantly as a zwitterion in the pH range between the two pKa values with a negatively-charged carboxylic group and a positively-charged tertiary amino group. The iso-electric point of the olopatadine zwitterion is at pH 6.99. At a pH lower than pKa1, cationic olopatadine (with ionized tertiary amino group) is dominant. At a pH higher than pKa2, anionic olopatadine (with ionized carboxylic group) is dominant.

[2] = Effect of NaCl and Na2HPO4 on dissolution of olopatadine hydrochloride in water
Method: The effect of NaCl on the dissolution rate of olopatadine hydrochloride in water was determined.

[3] = Effect of NaCl, Na2HPO4 and mannitol on dissolution rate of olopatadine hydrochloride in a nasal vehicle; details: nasal formulation containing 0.01% EDTA and 0.01% BAC
Method: The effect of NaCl, Na2HPO4, and mannitol on the dissolution rate of olopatadine hydrochloride in a nasal formulation containing 0.01% EDTA and 0.01% BAC was determined.

[4] = Effect of NaCl and Na2HPO4 concentrations on dissolution of olopatadine hydrochloride in a nasal formulation
Method: The effect of NaCl and Na2HPO4 concentrations on the dissolution rate of olopatadine hydrochloride in a nasal formulation containing 0.01% EDTA and 0.01% BAC was determined. The aqueous solubility of olopatadine HCl decreases with increasing concentration of NaCl.

[5] = Example 6: visual observations, phosphate buffer added to cloudy 0.6% olopatadine composition; details: tested nasal vehicle without a phosphate salt
[6] = Example 5: visual observations of clarity during compounding, with and without phosphate buffer; details: without phosphate buffer, 0.7% NaCl, pH as low as 3.6, compounding procedure of Example 1
Method: An exemplary compounding procedure for the nasal composition shown in Table 1 is described as below. • 1. Tare a suitable compounding vessel with magnetic stir bar. Add approximately 80% of the batch weight of purified water. • 2. While stirring, add dibasic sodium phosphate (anhydrous), sodium chloride, edetate disodium, benzalkonium chloride and olopatadine HCl. • 3. Add equivalent to approximately 0.55 g, 6N hydrochloric acid per 100 ml batch. • 4. Allow adequate time between each addition for dissolution of each ingredient • 5. Add purified water to approximately 90% of final batch weight. • 6. Measure pH and adjust, if necessary, to 3.7 with 6N (and/or 1N) hydrochloric acid and 1N sodium hydroxide. • 7. Adjust to final batch weight with purified water (QS). • 8. Measure final pH. • 9. Filter through 0.2 μm filtration membrane.
The two compositions shown in Table 2 below were prepared using the procedure described in Example 1 and visual observations of the compositions clarity were made at different points during the compounding procedure.

Structure (SMILES) | iso-electric point of the olopatadine zwitterion [1] [pH] | pKa1 (carboxylic functional group) [1] | pKa2 (tertiary amino group) [1] | effect of NaCl on rate of dissolution ([2]; in water) | effect of addition of Na2HPO4 on dissolution ([2]; in water with NaCl) | time for complete dissolution of 0.6% olopatadine solution ([2]; with Na2HPO4) | time for complete dissolution of 0.6% olopatadine solution ([2]; without Na2HPO4, assuming the entire amount would eventually dissolve) | effect of phosphate salt on dissolution rate [3] | aqueous solubility ([4]; with increasing concentration of NaCl, nasal formulation with 0.01% EDTA and 0.01% BAC) | aqueous solubility ([4]; with increasing phosphate buffer in the presence of NaCl) | solubility of 0.665% olopatadine hydrochloride [5] | dissolution of 0.665% olopatadine hydrochloride in water [6]
CN(C)CC/C=C1/c2ccccc2COc2ccc(CC(=O)O)cc21 [Olopatadine, Z-11-(3-dimethylaminopropylidene)-6,11-dihydrodibenz[b,e]oxepine-2-acetic acid] | 6.99 | 4.18 | 9.79 | significant reduction | dramatically improved | less than one minute | at least several hours | – | – | – | – | –
CN(C)CC/C=C1/c2ccccc2COc2ccc(CC(=O)O)cc21 [olopatadine hydrochloride, hydrochloride salt of (Z)-11-(3-dimethylaminopropylidene)-6,11-dihydro-dibenz-[b,e]oxepin-2-acetic acid] | – | – | – | – | – | – | – | the same as that shown in water in Example 2 | decreases | increased aqueous solubility | not soluble | did not completely dissolve

— patent publication US8399508B2, “Olopatadine formulations for topical nasal administration” (Alcon Pharmaceuticals Ltd., priority 2001, dated 2013)
